Legend:
HMLER-FOXC2 cells [1] = assay: Cell growth in monolayer cultures with sunitinib, HMLER-FOXC2; assay type: cell-based, human; conditions: sunitinib 10 μM (FIG. 7A), method says 2.5 μM, six days
Method: (§1) FIG. 7: Sunitinib inhibits the growth and metastasis of FOXC2-expressing tumors. FIG. 7A: Quantification of HMLER-Vector and HMLER-FOXC2 cell viability in the presence of sunitinib (10 μM) relative to vehicle (DMSO). N=3; error bars indicate SEM. *P<0.05. FIG. 7B: In vitro quantification of mammospheres formed by 1000 HMLER-FOXC2 and HMLER-Snail cells in the presence of sunitinib (10 μM) or DMSO. N=3; error bars indicate SEM. *P<0.05. FIG. 7C: Tumor volume of HMLER-FOXC2 cells injected into the mammary fat pad of NOD/SCID mice and treated with 40 mg/kg of sunitinib or vehicle (N=9) daily for the indicated number of days. Top line represents Vehicle; bottom line represents Sunitinib. […] FIGS. 7E and F: Thirty days following initiation of sunitinib or vehicle treatment, mice were euthanized and the organs, lung (FIG. 7E) and brain (FIG. 7F), were dissected and analyzed for metastatic tumor burden using bioluminescence imaging. The luminescent signal of tumor cells is represented as the total photon flux detected in each organ from individual mice with the bar indicating the average. ***P<0.001, **P<0.05 compared to the vehicle control group.
To determine the effects of sunitinib on cell growth, 2×10^5 cells were plated in a 6-well tissues culture dish. […] On the sixth day of treatment, viable cells per well was quantified using a Beckman-Coulter Vi-Cell Viability Analyzer.

[2] = tested on: HMLE-Snail and SUM159 cells expressing shControl or shFOXC2; assay: MTS cell viability assay, cells expressing endogenous FOXC2; assay type: cell-based, human; conditions: cells expressing endogenous FOXC2 (shControl) versus shFOXC2, 96 hours, increasing concentrations
Method: (§2) FIGS. 12A and B: Quantification of HMLE-Snail (FIG. 12A) and SUM159 (FIG. 12B) cell viability expressing either shControl or shFOXC2, following culture for 96 hours in increasing concentrations of sunitinib. Cell viability was assessed using an MTS assay. Top lines represent shFOXC2; bottom lines represent shControl. FIG. 12C: In vitro quantification of mammospheres formed by cells described above grown in the presence of sunitinib. Data represents the number of mammospheres formed per 1000 cells seeded after 7 days of culture. For each cell type, the left column represents Vehicle and the right column represents Sunitinib. Error bars indicate SEM. *P<0.05.

[3] = tested on: HMLE-Snail and SUM159 cells expressing shControl or shFOXC2; assay: Mammosphere assay, cells expressing endogenous FOXC2; assay type: cell-based, human; conditions: cells expressing endogenous FOXC2 (shControl) versus shFOXC2, 1000 cells seeded, 7 days
Method: as §2
Mammosphere cultures were performed as described (Dontu et al., 2003), with the exception that culture medium contained 1% methylcellulose to reduce cell aggregation (Mani et al., 2008). One thousand cells were plated per well into 96-well plates and cultured for 7-10 days, with fresh medium replaced every 3 days. Following incubation, mammospheres were photographed and spheres with a diameter greater than 75 μm were counted. To test the effects of sunitinib, 1000 cells were plated in 96-well low attachment plate in 100 μl mammosphere media. At 24 hours and 96 hours, 100 μl of mammosphere media containing 10 μM sunitinib or vehicle control (DMSO) was added to each well. Spheres were quantified after 7 days.

HMLER-FOXC2 tumors = assay: Orthotopic HMLER-FOXC2 xenograft in the mammary fat-pad; assay type: in vivo, NOD/SCID mice
Method: FIG. 7: Sunitinib inhibits the growth and metastasis of FOXC2-expressing tumors. FIG. 7A: Quantification of HMLER-Vector and HMLER-FOXC2 cell viability in the presence of sunitinib (10 μM) relative to vehicle (DMSO). N=3; error bars indicate SEM. *P<0.05. FIG. 7B: In vitro quantification of mammospheres formed by 1000 HMLER-FOXC2 and HMLER-Snail cells in the presence of sunitinib (10 μM) or DMSO. N=3; error bars indicate SEM. *P<0.05. FIG. 7C: Tumor volume of HMLER-FOXC2 cells injected into the mammary fat pad of NOD/SCID mice and treated with 40 mg/kg of sunitinib or vehicle (N=9) daily for the indicated number of days. Top line represents Vehicle; bottom line represents Sunitinib. FIG. 7D: Event-free survival of mice with orthotopic HMLER-FOXC2 xenografts treated daily with sunitinib (40 mg/kg, N=7) or vehicle (N=10). Mice were euthanized once tumors reached 1.5 cm^3. Bottom line represents Vehicle; top line represents Sunitinib. FIGS. 7E and F: Thirty days following initiation of sunitinib or vehicle treatment, mice were euthanized and the organs, lung (FIG. 7E) and brain (FIG. 7F), were dissected and analyzed for metastatic tumor burden using bioluminescence imaging. The luminescent signal of tumor cells is represented as the total photon flux detected in each organ from individual mice with the bar indicating the average. ***P<0.001, **P<0.05 compared to the vehicle control group.
To ascertain the effects of sunitinib on HMLER-FOXC2 tumor growth and animal survival, 1×10^6 firefly luciferase-labeled HMLER-FOXC2 cells were injected into the mammary fat-pad of NOD/SCID mice as described above. After 24 hours, the mice were treated 5 days a week with 40 mg/kg sunitinib or vehicle (n=9) by oral gavage. Animals were sacrificed once the tumors reached 1.5 cm^3 or 30 days following injection and the dissected organs were immediately analyzed for luciferase activity.

HMLER-Snail cells = assay: Mammosphere assay, HMLER-Snail; assay type: cell-based, human; conditions: 1000 cells, sunitinib 10 μM, 7 days
Method: as §1
(§3) Mammosphere cultures were performed as described (Dontu et al., 2003), with the exception that culture medium contained 1% methylcellulose to reduce cell aggregation (Mani et al., 2008). […] Spheres were quantified after 7 days.

HMLER-FOXC2 cells [4] = assay: Mammosphere assay, HMLER-FOXC2; assay type: cell-based, human; conditions: HMLER-FOXC2, 1000 cells, sunitinib 10 μM, 7 days
Method: as §1, §3

Compound: CCN(CC)CCNC(=O)c1c(C)[nH]c(/C=C2\C(=O)Nc3ccc(F)cc32)c1C [sunitinib]
- cell growth (cell viability relative to vehicle DMSO) (HMLER-FOXC2 cells [1]): specifically inhibit the cell growth
- sensitivity to sunitinib by MTS assay [2]: increased sensitivity
- sensitivity to sunitinib by reduction in mammosphere formation [3]: increased sensitivity
- primary tumor growth (tumor volume) (HMLER-FOXC2 tumors; 40 mg/kg sunitinib by oral gavage versus vehicle, NOD/SCID mice): reduced primary tumor growth
- metastatic burden in brain (photon counts, bioluminescence) (HMLER-FOXC2 tumors; 40 mg/kg sunitinib oral versus vehicle, thirty days after start of treatment, dissected brain): significantly reduced metastatic burden
- metastatic burden in lungs (photon counts, bioluminescence) (HMLER-FOXC2 tumors; 40 mg/kg sunitinib oral versus vehicle, thirty days after start of treatment, dissected lungs): significantly reduced metastatic burden
- event-free survival (HMLER-FOXC2 tumors; 40 mg/kg sunitinib oral versus vehicle, mice euthanized once tumors reached 1.5 cm^3): extended event-free survival
- decrease of mammosphere formation compared to vehicle (DMSO) treated cells (HMLER-Snail cells): > 20 fold
- decrease of mammosphere formation compared to vehicle (DMSO) treated cells (HMLER-FOXC2 cells [4]): > 8 fold

From US20140275201A1, “IDENTIFICATION OF CANCER STEM CELL MARKERS AND USE OF […] TO TREAT CANCER” (BOARD OF REGENTS, THE UNIVERSITY OF TEXAS SYSTEM, priority 2013, published 2014)
